The values that follow come from US20110060048A1, “Removing alcohol in vivo through esterification” (priority 2009, published 2011).

Where two headings read alike, the source gives them in different places.

The conditions of assay [1]: for C2H5OH % Decrease at Equilibrium, Trial 2 / C2H5OH % Decrease at Equilibrium, Trial 3 / C2H5OH % Decrease at Equilibrium, Trial 4 / C2H5OH % Decrease at Equilibrium, Trial 5 / C2H5OH % Decrease at Equilibrium, Average / C2H5OH % Decrease at Equilibrium, Trial 1: equal acetic acid. As for the experimental part:
Titrations with potassium permanganate (KMnO4) were later performed after the contents of each beaker received 5 minutes each of vigorous stirring and 25 minutes of inactivity to compare the final amount of ethanol left with the original amount.
In the following we describe the detailed procedure of in vitro experiment to verify the validity of reducing the amount of ethanol by esterification: • 1. Label four 100-mL beakers, 0.4 M, 0.6 M, 0.8 M, and 1.0 M. • 2. Put 17.15 mL of distilled water into each. • 3. Add 0.4 mL of concentrated ethanol to the first beaker, 0.6 mL to the second, 0.8 mL to the third, and 1.0 mL to the fourth. Swivel each beaker gently for 20-30 seconds to ensure mixing. See calculations below for explanation. • 4. Add another 17.15 mL of water to each beaker • 5. […] See calculations below for explanation. • 6. Stir each sample vigorously for five minutes in succession. […] Put on latex gloves before handling potassium permanganate. • 8. Set up two burettes, and fill each with approximately 100 mL of 0.2 M potassium permanganate. This will enable two titrations to be simultaneously done. • 9. Record the initial volume of potassium permanganate present in both burettes. • 10. Place 1.0 M and 0.8 M beakers on hot plate, and turn to power level 3. Heating quickens the titration process. • 11. Slowly drip KMnO4 into beakers while stirring. Make sure that each beaker is consistently titrated with the same burette to ensure that the exact volumes of KMnO4 that each beaker received can be easily calculated. • 12. Potassium permanganate is purple in color. When reacted with ethanol, a brown color (manganese oxide, MnO2) appears. The reaction is as follows:
When potassium permanganate ceases to be converted into manganese oxide, and the purple color stays, the titration is finished. There is no ethanol left in the beaker to react with potassium permanganate. • 13. Remove both beakers from hot plate. Measure the volume of potassium permanganate remaining in each burette. Subtract from the original volumes to find the volume of KMnO4 consumed in each reaction. • 14. Repeat steps 9-13 for the 0.6 M and 0.4 M beakers. • 15. Use stoichiometry to calculate the molar amount of 0.2 M potassium permanganate used in each titration. • 16. Ethanol and potassium permanganate react in a 3:4 molar ratio, according to the equation 3C2H5OH+4KMnO4→3CH3COOH+4MnO2+4KOH+H2O.
Again, use a chain calculation to calculate the molar amount of ethanol remaining in each beaker, then divide by […] to convert to molarity. Compare to the molarity of ethanol originally in each beaker. Calculate % error. • 17. Results (see Table 2)

The conditions of assay [2]: eight male volunteers, alcoholic beverage followed by 30 grams of fructose or sucrose, hourly measurements; cited from earlier work.

As to `CC(=O)O` [acetic acid], in assay [1] (0.4-1.0 M ethanol with same volume and concentration of acetic acid), the “decrease in the amount of ethanol when the system reaches equilibrium” value is 79-86%. In addition, in assay [1] (equal molar number of acetic acid added to the ethanol solution, 5 repeats), the “reduction of the ethanol amount” value is listed as 80-90%. Moreover, the “C2H5OH % Decrease at Equilibrium, Trial 2” value in assay [1] (initial C2H5OH 0.4 M) is recorded as 78.1%; in assay [1] (initial C2H5OH 0.6 M) it was 82.7%; in assay [1] (initial C2H5OH 0.8 M), 86.2%; in assay [1] (initial C2H5OH 1.0 M), 88.8%. Besides, the “C2H5OH % Decrease at Equilibrium, Trial 3” value is on record as 81.5% in assay [1] (initial C2H5OH 0.4 M), 83.8% in assay [1] (initial C2H5OH 0.6 M), 84.7% in assay [1] (initial C2H5OH 0.8 M) and 86.5% in assay [1] (initial C2H5OH 1.0 M). In addition, the “C2H5OH % Decrease at Equilibrium, Trial 4” value in assay [1] (initial C2H5OH 0.4 M) came to 81.2%; in assay [1] (initial C2H5OH 0.6 M) it was 83.7%; in assay [1] (initial C2H5OH 0.8 M), 84.6%; in assay [1] (initial C2H5OH 1.0 M) it was 91.1%. The “C2H5OH % Decrease at Equilibrium, Trial 5” value in assay [1] (initial C2H5OH 0.4 M) turned out to be 80.0%; in assay [1] (initial C2H5OH 0.6 M) it was 82.5%; in assay [1] (initial C2H5OH 0.8 M), 85.5%; in assay [1] (initial C2H5OH 1.0 M), 90.4%. Besides, the “C2H5OH % Decrease at Equilibrium, Average” value in assay [1] (initial C2H5OH 0.4 M, average of trials) came out at 80.2%; in assay [1] (initial C2H5OH 0.6 M, average of trials) it was 83.2%; in assay [1] (initial C2H5OH 0.8 M, average of 5 trials), 86.0%; in assay [1] (initial C2H5OH 1.0 M, average of 5 trials), 89.6%. The entries for the “C2H5OH % Decrease at Equilibrium, Trial 1” value in assay [1] (initial C2H5OH 0.8 M) and in assay [1] (initial C2H5OH 1.0 M) were 89.1% and 91.3%, respectively.

Consider `O=C(CO)[C@@H](O)[C@H](O)[C@H](O)CO` [fructose], for which the “percent of ethanol decrease (plateau, on average)” value in assay [2] is 29%.

For `OC[C@H]1O[C@@](CO)(O[C@H]2O[C@H](CO)[C@@H](O)[C@H](O)[C@H]2O)[C@@H](O)[C@@H]1O` [sucrose], the “percent of ethanol decrease (plateau, on average)” value in assay [2] is listed as 29%.
